Measurements from patent US12024494B2, “Salt of LSD1 inhibitor and a polymorph thereof” (CSPC ZHONGQI PHARMACEUTICAL TECHNOLOGY (SHIJIAZHUANG) CO., …, priority 2018, dated 2024).

What was measured:
LSD1 = LSD1 (Homo sapiens (Human), UniProt O60341); test: LSD1 inhibition, enzyme fluorescent conjugated method; format: biochemical; conditions: 10 concentrations, initial 10 μM, 3-fold dilution, read-out: IC50 (nM) Mean ± standard deviation
Experimental: The experiment was conducted in duplicate with an initial concentration of 10 μM diluted in a gradient of 3 times, and it was repeated twice at different dates.
LSD1 buffer composition: 50 mM Tris-HCl, pH 7.5, 0.05% CHAPS, 1% DMSO.
Reaction time: reacted at room temperature for 1 hour
1.2.1 Adding enzyme to a freshly prepared buffer
1.2.2 Adding a DMSO solution of the compound to the enzyme mixture using Acoustic Technology (Echo 550, LabCyte Inc. Sunnyvale, CA) at nL level, and incubating at room temperature for 30 minutes
1.2.3 Adding the substrate to a freshly prepared buffer
1.2.4 Incubating at room temperature for 1 hour
1.2.5 Preparing to test the mixture
1.2.6 Using Perkin Elmer Envision to read data
1.2.7 Using Excel and GraphPad Prism software to analyze data

[1] = system: human small cell lung cancer NCI-H1417 cell subcutaneous xenograft tumor; test: In vivo efficacy on NCI-H1417 subcutaneous xenograft tumor in CB-17 SCID mouse; conditions: for TGI (%) (Day 35) / Tumor volume (mm^3) (Day 35): PO, QD
Experimental: Week age and weight: 6-8 weeks old, weight: 16-21 grams
Human small cell lung cancer NCI-H1417 cells were cultured in a monolayer in vitro with RPMI-1640 medium plus 10% fetal bovine serum, at 37° C. and 5% CO2 to culture and passage. When the cell saturation was 80%-90%, the cells were collected by trypsin-EDTA digestion, counted, adjusted to 10×10^7 cells/mL and resuspended in PBS.
0.2 mL (10×10^6 cells) of NCI-H1417 cells (with Matrigel, volume ratio 1:1) were subcutaneously inoculated on the right back of each mouse. When the average tumor volume reached about 100-150 mm^3, the mice were grouped randomly and started to be administered.
The experimental vehicle was a 0.5% methyl cellulose solution. 5 g of methyl cellulose was weighed, dissolved in 800 mL of ultrapure water, stirred evenly and brought to the volume of 1000 mL with ultrapure water. The test substance was dissolved in the vehicle, prepared into a uniform solution of a certain concentration, and stored at 4° C.
The experimental indicator was to investigate whether the tumor growth was inhibited, delayed or cured. The tumor diameter was measured with a vernier caliper twice a week. The tumor volume is calculated by the formula of V=0.5a×b^2, where a and b represent the long diameter and short diameter of the tumor, respectively.
TGI (%) is used for the anti-tumor efficacy of the compound. TGI (%) reflects the tumor growth inhibition rate. TGI (%)=[(1−(Average tumor volume at the end of the administration of a certain treatment group−average tumor volume at the beginning of the administration of the treatment group))/(Average tumor volume at the end of treatment in the vehicle control group−Average tumor volume at the beginning of the treatment in the vehicle control group)]×100%. Vehicle control group: Vehicle (0.5% methylcellulose solution).

[2] = Hygroscopicity by dynamic vapor adsorption (DVS); format: physicochemical; conditions: 25° C. and 80% RH
Experimental: Instrument model: SMS DVS Advantage dynamic vapor adsorption instrument Test conditions: a sample (10˜15 mg) was taken and placed in the DVS sample pan for testing.
Balance: dm/dt=0.01%/min (shortest: 10 min, longest: 180 min)
drying: drying at 0% RH for 120 min
RH (%) test step range: 0%-90%-0%
Experimental Materials: SMS DVS Advantage dynamic vapor adsorption instrument

[3] = Solid stability of the crystal form (XRPD) under high temperature, high humidity and light; format: physicochemical
Experimental: For the samples placed under the conditions of high temperature (60° C.) and high humidity (relative humidity of 92.5% RH), the bottle opening was sealed with an aluminum foil, and some small holes were pierced in the aluminum foil to ensure that the sample can be sufficiently in contact with ambient air, and the samples were placed in the corresponding constant temperature and humidity ovens. The sample exposed to light (open, not covered with aluminum foil) and the control sample (the entire sample bottle was covered with aluminum foil) were placed in a light box. At each time point, 2 samples were weighed as formal test samples. […] The sample bottles were wrapped with an aluminum foil, and the aluminum foil was pierced with small holes. They were also placed in the corresponding constant temperature and humidity ovens. The sample was taken and detected (by XRPD) at the 5th day and 10th day, and the detection results were compared with the initial detection result at 0 day.

[4] = Solvent stability of the crystal form (suspension, 40° C., 2 days); format: physicochemical; conditions: for Crystal form: 40° C., 2 days
Experimental: Appropriate amounts of the compound III were weighed and added to different glass vials, and added respectively with appropriate amount of a solvent or a solvent mixture to prepare a suspension. After added with a magnet rotor and placed at room temperature, the above samples were placed on a constant temperature mixer (40° C.) to be shaken for 2 days (avoid from light). In order to ensure that the sample was as suspended as possible, the amount of the compound and the solvent would be adjusted according to the test phenomenon and even the container used in the experiment may be changed during the experiment. (The dissolved sample was evaporated naturally to dryness).

Q: For `N[C@H]1CC[C@H](c2nc(C3(CN[C@@H]4C[C@H]4c4ccccc4)CC3)no2)CC1` [Crystal form A of Compound III], which IC50 (LSD1) is on record?
A: 8 nM

Q: And the “TGI (%) (Day 35)” value ([1]; 1 mg/kg)?
A: 81.9%

Q: What about the “Tumor volume (mm^3) (Day 35)” value ([1]; 1 mg/kg) of the same compound?
A: 178 ± 17 mm^3

Q: And the “TGI (%) (Day 35)” value ([1]; 1.5 mg/kg)?
A: 99.2%

Q: What about the “Tumor volume (mm^3) (Day 35)” value ([1]; 1.5 mg/kg) of the same compound?
A: 121 ± 15 mm^3

Q: And the “TGI (%) (Day 35)” value ([1]; 3 mg/kg)?
A: 115.6%

Q: And the “Tumor volume (mm^3) (Day 35)” value ([1]; 3 mg/kg)?
A: 68 ± 13 mm^3

Q: And the “Anti-tumor effect (conclusion)” value ([1]; NCI-H1417 xenograft tumor model)?
A: excellent anti-tumor effect

Q: What about the Classification of hygroscopicity [2] of the same compound?
A: slightly hygroscopic

Q: And the “ΔW (moisture weight gain)” value [2]?
A: 1.14%

Q: What about the Crystal form ([3]; 0 day (initial)) of the same compound?
A: Crystal Form A

Q: And the Crystal form ([3]; High humidity (relative humidity 92.5%, open), 5th day)?
A: Crystal Form A

Q: What about the Crystal form ([3]; High humidity (relative humidity 92.5%, open), 10th day) of the same compound?
A: Crystal Form A

Q: What about the Crystal form ([3]; High temperature (60° C., open), 5th day) of the same compound?
A: Crystal Form A

Q: And the Crystal form ([3]; High temperature (60° C., open), 10th day)?
A: Crystal Form A

Q: What about the Crystal form ([3]; Light (total illuminance = 1.2 × 10^6 Lux·hr/near ultraviolet = 200 w·hr/m^2, open), 5th day) of the same compound?
A: Crystal Form A

Q: And the Crystal form ([3]; Light (total illuminance = 1.2 × 10^6 Lux·hr/near ultraviolet = 200 w·hr/m^2, open), 10th day)?
A: Crystal Form A

Q: And the “Solid stability (conclusion)” value ([3]; high temperature, high humidity and strong light)?
A: good stability

Q: What about the Crystal form ([4]; Acetonitrile) of the same compound?
A: Crystal form A

Q: And the Crystal form ([4]; Isopropanol)?
A: Crystal form A

Q: What about the Crystal form ([4]; Isopropyl acetate) of the same compound?
A: Crystal form A

Q: What about the Crystal form ([4]; Methanol, dissolved, and then precipitated) of the same compound?
A: Crystal form A

Q: What about the Crystal form ([4]; Tetrahydrofuran) of the same compound?
A: Crystal form A

Q: And the “Solvent stability (conclusion)” value ([4]; in the solvent)?
A: good stability
